Source: PubChem BioAssay (NCI)
Several values for one entry are separate records, joined by “and”; a condition that tells them apart may be missing. Equal entries are not always repeated.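 Results reflect a 48-hour exposure of cells in 96-well plates to compound at five concentrations. Abbreviation: GI50, concentration required for 50% inhibition of growth. The concentration for full growth arrest is given as TGI.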

What was measured:
Test in all cases: NCI-60 cell line screen, 48 h
MCF7 breast = system: MCF7 breast
MDA-MB-231 breast = system: MDA-MB-231 breast
UACC-62 melanoma = system: UACC-62 melanoma
NCI-H522 lung = system: NCI-H522 lung
HT29 colon = system: HT29 colon
MDA-MB-435 = system: MDA-MB-435
MALME-3M melanoma = system: MALME-3M melanoma
NCI-H226 lung = system: NCI-H226 lung
DU-145 prostate = system: DU-145 prostate
K-562 leukemia = system: K-562 leukemia

| SMILES | TGI (MCF7 breast) | TGI (MDA-MB-231 breast) | TGI (UACC-62 melanoma) | TGI (NCI-H522 lung) | TGI (HT29 colon) | TGI (MDA-MB-435) | TGI (MALME-3M melanoma) | TGI (NCI-H226 lung) | TGI (DU-145 prostate) | TGI (K-562 leukemia) | GI50 (MCF7 breast) | GI50 (MDA-MB-231 breast) | GI50 (UACC-62 melanoma) | GI50 (NCI-H522 lung) | GI50 (HT29 colon) | GI50 (MDA-MB-435) | GI50 (MALME-3M melanoma) | GI50 (NCI-H226 lung) | GI50 (DU-145 prostate) | GI50 (K-562 leukemia) |
| --- | --- | --- | --- | --- | --- | --- | --- | --- | --- | --- | --- | --- | --- | --- | --- | --- | --- | --- | --- | --- |
| Cc1ccc(S(=O)(=O)Nc2ccccc2C=O)cc1 | 35.2 µM | 41 µM | 27 µM | 82.1 µM | 49.3 µM | 34.9 µM | 46.1 µM | 41.5 µM | > 100 µM | 60.8 µM |  |  |  |  |  |  |  |  |  |  |
| C/C=C(\C)C(=O)O[C@H]1C=CC(=O)O[C@H]1CCC(=O)[C@H](C)O | 21.9 µM | 32.4 µM | 27.7 µM | 33.7 µM | 23.5 µM | 27.3 µM | 32.1 µM | 34.8 µM | 33.1 µM | 22.2 µM | 7.47 µM | 16.8 µM | 14.1 µM | 13.5 µM | 8.61 µM | 11.8 µM | 15.5 µM | 15.1 µM | 16.9 µM | 4.92 µM |
| COc1cccc(C2CC(C)(O)Oc3cc4c(cc32)OCO4)c1O (centres undefined) | > 66.5 µM | 67.7 µM | > 75.9 µM | 53.5 µM | 50.6 µM | 9.77 µM | > 100 µM | 57.9 µM | 73.2 µM | > 53.6 µM |  |  |  |  |  |  |  |  |  |  |
| CC(=O)N=C1N(/C=C2\C(=O)Oc3ccccc3C2=O)C(=O)/C(=C/c2cccc(Cl)c2Cl)N1C | > 100 µM | 86.4 µM | > 100 µM | > 100 µM | 49.1 µM | > 100 µM | > 100 µM | 94.2 µM | > 100 µM | 63.3 µM |  |  |  |  |  |  |  |  |  |  |
| CSc1nc(=O)n(CCC#N)nc1SC | 9.04 µM | > 100 µM | > 100 µM | 61.8 µM | > 100 µM | > 100 µM | 48.6 µM | 84.2 µM | > 100 µM | 71.1 µM |  |  |  |  |  |  |  |  |  |  |
| Oc1ccc(Nc2ncnc3c2sc2ncccc23)cc1 | > 100 µM | > 100 µM | 46.1 µM | > 100 µM | > 100 µM | > 100 µM | > 100 µM | > 100 µM | > 100 µM | > 100 µM | < 0.01 µM | > 100 µM | 0.0379 µM | 0.0369 µM | 0.0496 µM | 0.0403 µM | 4.93 µM | 0.352 µM | 0.0369 µM | 0.36 µM |
| COc1ccc(OC)c2c1[nH]c(=O)c1c3ccccc3cn21 | 1.98 µM | 2.86 µM | 2.92 µM | 3.48 µM | 2.54 µM | 3.13 µM | 3.32 µM | 3.29 µM | 3.03 µM | 3.12 µM | 0.0727 µM | 1.4 µM | 1.55 µM | 1.7 µM | 0.813 µM | 1.62 µM | 1.78 µM | 1.61 µM | 1.51 µM | 0.692 µM |
| CCCCC#CC1=C(Br)C(=O)OC1 | 8.08 µM | 4.03 µM | 7.1 µM | 5.08 µM | > 22.1 µM | 5.54 µM | 4.13 µM | 26.6 µM | 2.34 µM | > 100 µM | 1.03 µM | 1.78 µM | 2.24 µM | 2.27 µM | 2.85 µM | 2.17 µM | 1.73 µM | 3.76 µM | 0.752 µM | 0.279 µM |
| COc1ccc(C2SC(N)=Nc3c2c(C)nn3C(=O)c2ccncc2)cc1OC (centres undefined) | > 10 µM | > 10 µM | > 10 µM | > 10 µM | > 10 µM | > 10 µM | > 10 µM | > 10 µM | > 10 µM | > 10 µM |  |  |  |  |  |  |  |  |  |  |
| CO/N=C(/C)c1cccc(Nc2cc(-n3nnc4ccccc43)nc3ccccc23)c1 | > 100 µM | 60.2 µM | > 100 µM | > 100 µM | > 100 µM | 39.4 µM | 58 µM | > 100 µM | > 100 µM | > 100 µM | 31.3 µM | 7.55 µM | 25.2 µM | > 100 µM | 11.8 µM | 14.8 µM | 16.1 µM | 27.3 µM | 40.4 µM | 15.2 µM |
| CCOC(=O)C(C#N)C1=CC(=O)C(=O)c2ccc(OC)cc21 (centres undefined) | 31.4 µM | 29.1 µM | 28.5 µM | 18.7 µM | 94.2 µM | 35.4 µM | 31 µM | 49.7 µM | 38.2 µM | > 100 µM |  |  |  |  |  |  |  |  |  |  |
| C/C=C/C(CC(O)(C(F)(F)F)C(F)(F)F)=N/NC(N)=S | > 10 µM | > 10 µM | > 10 µM | > 10 µM | > 10 µM | > 10 µM | > 10 µM | > 10 µM | > 10 µM | > 10 µM |  |  |  |  |  |  |  |  |  |  |
| COc1cccc2c1C(=O)c1c(O)c3c(c(O)c1C2=O)C[C@@](O)(C(=O)CO)C[C@@H]3OC1CC(N)CC(C)O1 (some centres undefined) | 3.71 µM and 1.93 µM | 0.675 µM and 0.78 µM | 0.148 µM and 0.0691 µM | 0.179 µM and 0.303 µM | 1.1 µM and 0.809 µM | 0.283 µM and 0.156 µM | 0.256 µM and 0.11 µM | 0.282 µM and 0.132 µM | 0.175 µM and 1.22 µM | 0.783 µM and 0.406 µM | 0.00536 µM | 0.232 µM | 0.0308 µM | 0.0339 µM | 0.0296 µM | 0.131 µM and 0.0327 µM | 0.0491 µM | 0.00987 µM and 0.0723 µM and 0.0435 µM |  | 0.0243 µM and 0.0414 µM |
| CC1(C)N=C(N)N=C(N)N1c1ccc(CCCCc2ccc(Cl)cc2S(=O)(=O)F)c(Cl)c1 | 9.49 µM | 11.4 µM | 14.3 µM | 13.4 µM | 14.5 µM | 16.1 µM | 14.9 µM | 29.2 µM | 15.8 µM | 13.8 µM | 0.327 µM | 0.993 µM | 0.344 µM | 0.53 µM | 0.374 µM | 0.474 µM | 1.65 µM | 1.23 µM | 0.558 µM | 0.073 µM |
| COc1cc(OCc2cccc(-c3ccc(C(O)c4nccs4)cc3)c2C)cc(OC)c1C=O (centres undefined) | 4.81 µM | 7.32 µM | 1.92 µM | 6.35 µM | 13.6 µM | 6.26 µM | 7.9 µM | 2.7 µM | 10.5 µM | 13.6 µM | 1.69 µM | 2.2 µM | 0.349 µM | 1.74 µM | 2.83 µM | 2.22 µM | 2.7 µM | 0.37 µM | 2.81 µM | 1.22 µM |
| O=C(/C=C/c1ccccc1)CCC1C(=O)c2ccccc2C1=O | > 100 µM | > 100 µM | > 100 µM | > 100 µM | > 100 µM | > 100 µM | > 100 µM | > 100 µM | > 100 µM | > 100 µM |  |  |  |  |  |  |  |  |  |  |
